Assay results from patent publication US20250362286A1, “SCREENING MODELS AND METHODS OF CANCER TREATMENT” (The Regents of the University of California, priority 2022, published 2025).

Columns and labels:
Type in all cases: cell-based
[1] = test system: MDAs; experiment: Ca2+ signaling with genetically encoded Ca2+ sensor GCamp6f; conditions: GCamp6f-expressing MDAs (data not shown)
Description: (§1) Therefore, to begin to characterize the MOA of ISX9 in CSCs, it was first determined whether ISX9 treatment of CSCs triggered Ca^2+ signaling. MDAs were transduced to express the genetically encoded Ca^2+ sensor GCamp6f and treated with vehicle, ionomycin (positive control), or ISX9 (data not shown). […] FIG. 5 depicts Ca^2+ response of MDAs to ISX9 treatment. Scale bar=250 μm.

[2] = test system: MDA-MB-231s; experiment: CD24 mRNA expression in 2D (differentiation screening); conditions: 200 μM, 48h, FCthreshold=2.0
Description: FIG. 3H depicts relative CD24 mRNA expression. CD24 expression was an early indicator of response to ISX9 in 2D across several TNBC cell lines. Treatment screening of several different TNBC cell lines with ISX9 in 2D for 48h yielded four responders, as determined by CD24 mRNA expression (FIG. 3H).
These analogs were screened for their potential to differentiate MDA-MB-231s, yielding at least one new hit, CR-1 (˜98% similarity), which induced a ˜6-fold upregulation of CD24 at a concentration of 200 μM at 48h in 2D (FIG. 6).

[3] = test system: MDAs; experiment: invasion distances of MDAs in HD Col1 treated with GSIs; conditions: HD Col1, vs vehicle (0.1% DMSO)
Description: Therefore, this example assessed what effect GSIs would have on MDAs in HD Col1. […] FIG. 3C depicts invasion distances of MDAs in HD Col1 treated with vehicle (0.1% DMSO) or GSIs DAPT and MK0752.

[4] = test system: MDA-MB-231 cells; experiment: western blot of acetylation of histones H3 and H4; conditions: 2D- and 3D-treated cells, 24 hours
Description: Also identified was the fact that a similar increase in acetylation was found in patient-derived organoid models. […] Acetylation and deactylation of histones H3 and H4 are typically orchestrated by Histone Acetyltransferases (HATs), including the several HAT subfamilies, as well as HDACs (see, e.g., Marmorstein, R. et al. Cold Spring Harb. Perspect. Biol. 6, a018762 (2014)). Not wishing to be bound by any particular theory, Isx9 may bind directly to HATs and/or HDACs in order to activate histone acetylation and drive induction of MET and/or CSC differentiation.

[5] = test system: CSCs; experiment: phenotypic effects in CSCs (MOA controls); conditions: compared to ISX9 (data not shown)
Description: as §1

## C[C@H](CCC(=O)O)C[C@H](C)C[C@H](C)C(=O)/C=C(\O)[C@H](C)C[C@H](C)C/C=C/[C@@H](C)[C@@H](O)[C@@H](C)[C@@H](O)C[C@@H]1CC[C@@](C)([C@H]2CC[C@@](C)([C@@H](C)O)O2)O1 [ionomycin, reference compound]
[1]
  Ca2+ signal: observed

## CC(C)NC(=O)c1cc(-c2cccs2)on1 [CR-1]
[2]
  upregulation of CD24: ~6 fold

## C[C@H](NC(=O)Cc1cc(F)cc(F)c1)C(=O)N[C@H](C(=O)OC(C)(C)C)c1ccccc1 [DAPT]
[3]
  inhibition of the CINP / tumor cell invasion: did not inhibit the CINP, but rather slightly promoted tumor cell invasion

## CC(/C=C/C(=O)NO)=C\[C@@H](C)C(=O)c1ccc(N(C)C)cc1 [TSA, reference compound]
[4]
  acetylation of histones H3 and H4: similarly induced H3/H4 acetylation

## O=C(O)CC[C@H]1CC[C@@](c2cc(F)ccc2F)(S(=O)(=O)c2ccc(Cl)cc2)CC1 [MK0752]
[3]
  inhibition of the CINP / tumor cell invasion: did not inhibit the CINP, but rather slightly promoted tumor cell invasion

## CN[C@H](CC(=O)O)C(=O)O [NMDA, N-Methyl-D-aspartate]
[5]
  phenotypic effects: no phenotypic effects
